Where two headings read alike, the source gives them in different places.
System: Utrophin A promoter linked to a luciferase reporter gene
Experiment: Luciferase reporter assay (murine H2K cells)
Format: cell-based
Details: for activity at 10 µM: Mus musculus, H2K mdx
How it was run: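 Immortalized mdx mouse H2K myoblasts stably carrying a ~5 kb utrophin A promoter–luciferase construct, kept at 33° C, 10% CO2. After 24 hrs plating, compound added at 10 μM final for 48 hrs; luciferase light output read after in-situ lysis.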

[1] = luciferase level relative to control, H2K/mdx/Utro A reporter cells, compound 10 μM final concentration, read-out: Activity
[2] = luciferase reporter assay in murine H2K cells, classified relative to control
[3] = luciferase level relative to control, H2K/mdx/Utro A reporter cells, compound 10 μM final concentration

Structure (SMILES) | activity at 10 µM [1] [%] | Activity [2] | further results
CCCC(=O)Nc1ccc2oc(-c3ccc(OC)cc3)nc2c1 [Example 137, N-(2-(4-methoxyphenyl)benzo[d]oxazol-5-yl)butyramide] | 201 to 300 |  | 
CCCCC(=O)Nc1ccc2oc(-c3ccc(C)cc3)nc2c1 [Example 117, N-(2-p-tolylbenzo[d]oxazol-5-yl)pentanamide] | 301 to 400 |  | 
Nc1ccc2sc(-c3ccccc3)nc2c1 [Example 251, 2-phenylbenzo[d]thiazol-5-amine] |  |  | activity at 10 µM: 301 to 400%
CC(c1ccccc1)c1nc2cc(N)ccc2o1 (centres unmarked) [Example 308, 2-(1-phenylethyl)benzo[d]oxazol-5-amine] | < 200 |  | 
Cc1ccc2sc(NC(=O)NC(=O)c3c(Cl)cccc3Cl)nc2c1 [Example 462] |  | + (Up to 200% relative to control) | 
Cc1cc(-c2nc3ccccc3s2)ccc1[N+](=O)[O-] [Example 599] |  | ++++ (Above 401% relative to control) | 
CC(=O)Nc1ccc(-c2nc3ccccc3o2)cc1 [Example 589] |  | +++ (Between 301% and 400% relative to control) | 
O=C(Nc1ccccc1F)C(=O)c1c[nH]c2ccccc12 [Example 689] |  | ++ (Between 201% and 300% relative to control) | 
CC(C)C(=O)Nc1ccc2oc(-c3ccc4ccccc4c3)nc2c1 [Example 384, N-(2-(naphthalen-2-yl)benzo[d]oxazol-5-yl)isobutyramide] | 301 to 400 |  | 
Cc1ccc(-c2nc3ccccc3o2)cc1 [Example 173, 2-p-tolylbenzo[d]oxazole] | 301 to 400 |  | 
CCCC(=O)Nc1ccc2oc(-c3ccc(N(CC)CC)cc3)nc2c1 [Example 76, N-(2-(4-(diethylamino)phenyl)benzo[d]oxazol-5-yl)butyramide] | < 200 |  | 
CCCC(=O)Nc1ccc2sc(-c3ccc(C)cc3)nc2c1 [Example 216, N-(2-p-tolylbenzo[d]thiazol-5-yl)butyramide] | > 401 |  | 
CC(C)C(=O)Nc1ccc2[nH]c(-c3ccccc3)nc2c1 [Example 188, N-(2-phenyl-1H-benzo[d]imidazol-5-yl)isobutyramide] | 301 to 400 |  | 
CC(=O)Nc1ccc(-c2nc3cc(Cl)c(NC(C)=O)cc3[nH]2)cc1 [Example 556] |  | + (Up to 200% relative to control) | 
Cc1cccc(NC(=O)c2sc3nc(C)cc(C)c3c2N)c1 [Example 650] |  | +++ (Between 301% and 400% relative to control) | 
Cc1cc(-c2nc3cc(N)ccc3o2)ccc1Br [Example 649] |  | +++ (Between 301% and 400% relative to control) | 
CC(C)(C)c1ccc2oc(-c3ccc(N)cc3)nc2c1 [Example 593] |  | +++ (Between 301% and 400% relative to control) | 
CCCCNC(=O)c1ccc2oc(-c3ccc(C)cc3)nc2c1 [Example 176, N-butyl-2-p-tolylbenzo[d]oxazole-5-carboxamide] | 201 to 300 |  | 
CC(=O)Nc1ccc2oc(-c3ccc(C(F)(F)F)cc3)nc2c1 [Example 123, N-(2-(4-(trifluoromethyl)phenyl)benzo[d]oxazol-5-yl)acetamide] | 201 to 300 |  | 
CC(C)C(=O)Nc1ccc2sc(-c3ccccc3)nc2c1 [Example 267, N-(2-phenylbenzo[d]thiazol-5-yl)isobutyramide] | > 401 |  | 

Structure (SMILES) | activity at 10 µM [1] [%] | Activity [2] | further results
Cc1ccc(C(=O)Nc2nc3ccccc3s2)c(Cl)c1 [Example 567] |  | + (Up to 200% relative to control) | 
Nc1cc(-c2nc3ccccc3s2)ccc1Cl [Example 592] |  | ++++ (Above 401% relative to control) | 
O=C(Nc1ccc2oc(-c3ccc(C(F)(F)F)cc3)nc2c1)c1ccco1 [Example 128, N-(2-(4-(trifluoromethyl)phenyl)benzo[d]oxazol-5-yl)furan-2-carboxamide] | < 200 |  | 
CC(C)C(=O)Nc1ccc2oc(-c3c(F)cccc3Cl)nc2c1 [Example 341, N-(2-(2-chloro-6-fluorophenyl)benzo[d]oxazol-5-yl)isobutyramide] | < 200 |  | 
COc1ccc2oc(-c3ccc(C)c(N)c3)nc2c1 [Example 686] |  | ++ (Between 201% and 300% relative to control) | 
O=[N+]([O-])c1ccc2nc(-c3ccccn3)oc2c1 [Example 223, 6-nitro-2-(pyridin-2-yl)benzo[d]oxazole] | < 200 |  | 
CC(C)c1ccc2oc(-c3ccc(N)cc3O)nc2c1 [Example 565] |  | +++ (Between 301% and 400% relative to control) | 
CC(C)C(=O)Nc1ccc2oc(-c3ccc(C4CCCCC4)cc3)nc2c1 [Example 430, N-(2-(4-cyclohexylphenyl)benzo[d]oxazol-5-yl)isobutyramide] | < 200 |  | 
Cc1cc2nc(-c3ccc(N)cc3)oc2cc1C [Example 485] |  | ++ (Between 201% and 300% relative to control) | 
Cc1ccc(-c2nc3cc(-c4ccccc4)ccc3o2)cc1 [Example 161, 5-phenyl-2-p-tolylbenzo[d]oxazole] | 301 to 400 |  | 
O=[N+]([O-])c1ccc(-c2nc3ccccc3o2)cc1 [Example 477] |  | + (Up to 200% relative to control) | 
c1ccc(-c2nc3c(ccc4ccccc43)o2)cc1 [Example 86, 2-phenylnaphtho[1,2-d]oxazole] | 301 to 400 |  | 
O=C(Nc1ccc2oc(-c3ccc(Cl)cc3)nc2c1)c1ccc(F)cc1 [Example 96, N-(2-(4-chlorophenyl)benzo[d]oxazol-5-yl)-4-fluorobenzamide] | < 200 |  | 
CCCS(=O)(=O)Nc1ccc2oc(-c3ccccc3)nc2c1 [Example 193, N-(2-phenylbenzo[d]oxazol-5-yl)propane-1-sulfonamide] | 201 to 300 |  | 
COc1ccc(-c2nc3ccccc3s2)cc1 [Example 582] |  | ++++ (Above 401% relative to control) | 
COc1ccc(-c2nc3cc(NC(C)=O)ccc3o2)cc1Cl [Example 519] |  | ++ (Between 201% and 300% relative to control) | 
O=S(=O)(Nc1ccc2oc(-c3ccccc3)nc2c1)c1ccccc1 [Example 221, N-(2-phenylbenzo[d]oxazol-5-yl)benzenesulfonamide] | < 200 |  | 
Cc1ccc2nc(-c3cccc(NC(=O)c4ccco4)c3)[nH]c2c1 [Example 538] |  | + (Up to 200% relative to control) | 
CCCCNc1ccc2oc(-c3ccccc3)nc2c1 [Example 167, N-butyl-2-phenylbenzo[d]oxazol-5-amine] | > 401 |  | 
O=C(Nc1ccc(-c2nc3ccccc3[nH]2)cc1)c1cccs1 [Example 585] |  | ++++ (Above 401% relative to control) | 

Structure (SMILES) | activity at 10 µM [1] [%] | Activity [2] | further results
CC(=O)Sc1ccc2oc(-c3ccc(Cl)cc3)nc2c1 [Example 407, S-2-(4-chlorophenyl)benzo[d]oxazol-5-yl ethanethioate] | < 200 |  | 
O=C(Nc1ccc2oc(-c3ccccc3)nc2c1)c1ccc(C(F)(F)F)cc1 [Example 29, N-(2-phenylbenzo[d]oxazol-5-yl)-4-(trifluoromethyl)benzamide] | < 200 |  | 
Nc1ccc(-c2nc3ccccc3o2)cc1 [Example 478] |  | ++ (Between 201% and 300% relative to control) | 
CCN(CC)c1ccc(-c2nc3cc(NC(=O)CCc4ccccc4)ccc3o2)cc1 [Example 74, N-(2-(4-(diethylamino)phenyl)benzo[d]oxazol-5-yl)-3-phenylpropanamide] | < 200 |  | 
CC(C)C(=O)Nc1ccc2oc(-c3ccc4ccccc4n3)nc2c1 [Example 416, N-(2-(quinolin-2-yl)benzo[d]oxazol-5-yl)isobutyramide] | > 401 |  | 
c1ccc(-c2ccc(-c3nc4ccccc4[nH]3)cc2)cc1 [Example 558] |  | + (Up to 200% relative to control) | 
CC(C)C(=O)Nc1ccc(-c2nc3ccc(Cl)cc3o2)cc1 [Example 333, N-(4-(6-chlorobenzo[d]oxazol-2-yl)phenyl)isobutyramide] | 201 to 300 |  | 
CCN(CC)c1ccc(-c2nc3ccc(Cl)cc3o2)cc1 [Example 132, 4-(6-chlorobenzo[d]oxazol-2-yl)-N,N-diethylaniline] | > 401 |  | 
COc1ccc(-c2ccc3oc(-c4ccc(Cl)cc4)nc3c2)cn1 [Example 306, 2-(4-chlorophenyl)-5-(6-methoxypyridin-3-yl)benzo[d]oxazole] |  |  | Activity [3]: + (Up to 200% relative to control)
CN1CCN(c2ccc(-c3nc4cc(N)ccc4o3)cc2)CC1 [Example 151, 2-(4-(4-methylpiperazin-1-yl)phenyl)benzo[d]oxazol-5-amine] | 201 to 300 |  | 
O=[N+]([O-])c1ccc2nc(-c3ccc(Cl)c(Cl)c3)oc2c1 [Example 324, 2-(3,4-dichlorophenyl)-6-nitrobenzo[d]oxazole] | 201 to 300 |  | 
CCC(=O)Nc1ccc2oc(-c3ccc(Cl)cc3)nc2c1 [Example 207, N-(2-(4-chlorophenyl)benzo[d]oxazol-5-yl)propionamide] | > 401 |  | 
CC(=O)c1ccc2oc(-c3ccc(Cl)c(Cl)c3)nc2c1 [Example 453, 1-(2′-(3″,4″-Dichlorophenyl)benzo[d]oxazol-5′-yl)ethanone] |  |  | Activity [3]: ++++ (Above 401% relative to control)
Clc1ccc2nc(-c3ccncc3)oc2c1 [Example 331, 6-chloro-2-(pyridin-4-yl)benzo[d]oxazole] | < 200 |  | 
CCS(=O)(=O)c1ccc2oc(-c3ccc4ccccc4c3O)nc2c1 [Example 437, 2-(5-(ethylsulfonyl)benzo[d]oxazol-2-yl)naphthalen-1-ol] | > 401 |  | 
c1csc(-c2nc3cc4ccccc4cc3[nH]2)c1 [Example 561] |  | +++ (Between 301% and 400% relative to control) | 
CC(C)C(=O)Nc1ccc2oc(SCc3ccc(Cl)cc3)nc2c1 [Example 383, N-(2-(4-chlorobenzylthio)benzo[d]oxazol-5-yl)isobutyramide] | < 200 |  | 
COc1ccc(-c2nc3cc(NC(=O)c4cccs4)ccc3o2)cc1 [Example 141, N-(2-(4-methoxyphenyl)benzo[d]oxazol-5-yl)thiophene-2-carboxamide] | < 200 |  | 
CCn1c(C)nc2cc(C(=O)Nc3ccccc3)ccc21 [Example 615] |  | ++++ (Above 401% relative to control) | 

Reference: patent US8501713B2, “Drug combinations for the treatment of duchenne muscular dystrophy” (Summit Corporation PLC, priority 2007, dated 2013)
